Results reported in patent US20200031785A1, “METHODS FOR TREATING CHRONIC PAIN AND OPIOID DEPENDENCE USING ADENYLYL CYCLASE INHIBITORS” (Purdue Research Foundation, priority 2017, published 2020).
Read-outs that look alike come from different tables or passages of the source.

Tests used:
hAC2 [1] = molecular target: T1, hAC2 (Homo sapiens, UniProt Q08462); test: Cyclic AMP accumulation in stable HEK-AC2 cells, stimulated with 100 nM PMA; assay type: cell-based; details: for hAC2 % Inhib.: % inhibition at 30 μM, 100 nM PMA-stimulated, negative = potentiated response, n = 2
T1 construct: expressed in transfected cells
Description: (§1) Cyclic AMP accumulation was measured as previously described (Brust, et al., J. Pharmacol. Exp. Ther. 352, 480-493(2015)). Briefly, cryopreserved cells were thawed, resuspended in optiMEM (Life Technologies), and plated in white, flat bottom, low-volume, tissue culture-treated 384 well plates (PerkinElmer, Shelton, Conn.). Plates with cells were incubated in a 37° C. humidified incubator for 1 h. Inhibitors were added and plates were incubated at room temperature for 30 min followed by the addition of AC stimulants in the presence of 500 μM IBMX. Cells were incubated at room temperature for 1 h and cAMP accumulation was measured using Cisbio's cAMP kit (Cisbio Bioassays, Bedford, Mass.) according to the manufacturer's instructions.

hAC5 [2] = molecular target: T2, hAC5 (Homo sapiens, UniProt O95622); test: Cyclic AMP accumulation in stable HEK-AC5 cells, stimulated with 300 nM forskolin; assay type: cell-based; details: % inhibition at 30 μM, 300 nM forskolin-stimulated, negative = potentiated response, n = 2
T2 construct: expressed in transfected cells
Description: as §1

hAC8 = molecular target: T3, hAC8 (Homo sapiens, UniProt P40145); test: Cyclic AMP accumulation in HEK cells stably expressing AC8, stimulated with A23187 (HTRF); assay type: cell-based; details: for hAC8 % Inhib.: % inhibition at 30 μM (negative values indicate a potentiated response); for inhibition at 30 µM: HEK293
T3 construct: expressed in transfected cells
Description: (§2) Fresh powders of several robust inhibitors (>90% inhibition) were evaluated in multiple confirmation assays assessing the dose response relationship for inhibiting AC1 and AC8 activity. Confirmation assays used A23817 to selectively stimulate recombinant AC1 or AC8 in the HEK cell background (Cumbay and Watts (2001), J. Pharmacol Exp Ther 297:1201-1399). This approach takes advantage of one unique regulatory property of AC1 for the development of selective inhibitors. Both AC1 and AC8 are robustly activated by Ca^2+/CaM under a variety of conditions, whereas the effects of Ca^2+/CaM on AC3 are modest and conditional requiring activation by G proteins. Previous studies have identified unique Ca^2+/CaM binding domains as one possible site of interaction to achieve AC1 (vs. AC8) selectivity (Masada et al., 2012, Biochemistry 51:7917-7929).
(§3) The primary technology we employed to measure cAMP accumulation was a homogenous time-resolved fluorescence (HTRF) assay, the same technology utilized in the primary screen. […] This could be due to either 1) the chemical scaffolds are exquisitely selective toward the AC family of enzymes or 2) the library has not been screened against a sufficient number of targets. The answer is likely a combination of the two; nonetheless, the lack of biological data to date bodes well for these series and any potential off-target promiscuity.
(§4) Human embryonic kidney (HEK) cells stably expressing AC1, AC8, or AC1 with the MOR were cultured in Dulbecco's Modified Eagle Medium (Life Technologies, Grand Island, N.Y.) supplemented with 5% bovine calf serum (Hyclone, Logan, Utah), 5% fetal clone I (Hyclone), Antibiotic-Antimycotic (Life Technologies), and G418 (Invivogen, San Diego, Calif.) (HEK-AC1), or hygromycin B (Fisher Scientific, Pittsburgh, Pa.) (HEK-AC8), or G418 and puromycin (Sigma-Aldrich) (HEK-AC1/MOR). Chinese hamster ovary (CHO) cells expressing the MOR (CHO-MOR) in the PathHunter® β-Arrestin GPCR assay platform were purchased from DiscoveRx (Freemont, Calif.). Cells were grown in Ham's F12 media supplemented with 1 mM L-glutamine (Thermo Scientific, West Palm Beach, Fla.), 10% fetal bovine serum (Hyclone), 50 U/ml penicillin, 50 μg/ml streptomycin (Life Technologies), G418 and hygromycin B. Cells were grown and frozen as previously described (J. M. Conley, et al., J Vis Exp, e51218 (2014)).
as §1

hAC1 = molecular target: T4, hAC1 (Homo sapiens, UniProt Q08828); test: Cyclic AMP accumulation in HEK cells stably expressing AC1, stimulated with A23187 (HTRF); assay type: cell-based; details: for Selectivity AC1 vs AC8: AC8 IC50/AC1 IC50, in the absence of AC8 IC50, estimate based on IC50 ≥30 μM; for inhibition at 30 µM: HEK293
T4 construct: expressed in transfected cells
Description: The development and mechanistic characterization of AC1-selective small molecule inhibitors is believed to provide novel non-opioid weapons in the war on chronic pain. We identified our initial hits via screening 10,000 selected compounds from the Life Chemicals collection. The screen was carried out using HEK cells stably expressing AC1 (HEK-AC1) and cyclic AMP accumulation was stimulated using the Ca^2+ ionophore, A23187 to selectively activate AC1. Compounds with potential chemical liabilities and PAINs were removed from further evaluation (Baell and Holloway, J. Med. Chem. 2010, 53, 2719-2740).
as §2, §3, §4, §1

AC1-HEK cells [3] = test system: AC1-HEK cells
Description: Cell viability assays were conducted with HEK-AC1 cells following plating and compound incubation protocols identical to the procedures described above in “Cyclic AMP assays in cells”. Cell viability was measured as a percentage of vehicle using 2% Triton X-100 (Sigma-Aldrich) as a control. The CellTiter-Glo® Luminescent Cell Viability Assay kit from Promega (Madison, Wis.) was employed to assess cell viability according to the manufacturer's instructions. Luminescence counts were measured using a Synergy 4.

AC1-HEK cells [4] = details: data from Brust et al. 2017; cited from earlier work
hAC2 [5] = molecular target: T1, hAC2; details: data from Brust et al. 2017; % inhibition at 30 μM, PMA-stimulated, negative = potentiated; cited from earlier work
hAC5 [6] = molecular target: T2, hAC5; details: data from Brust et al. 2017; % inhibition at 30 μM, forskolin-stimulated, negative = potentiated; cited from earlier work
chronic pain responses = details: both mice and rats; cited from earlier work
[7] = stable HEK cell line, A23187-stimulated cAMP accumulation, n ≥ 3, read-out: hAC8 IC50
[8] = stable HEK cell line, A23187-stimulated cAMP accumulation, n ≥ 3
[9] = stable HEK cell line, A23187-stimulated cAMP accumulation, n ≥ 3, read-out: hAC1 IC50
[10] = HEK-AC8 cells, read-out: HEK-AC8 IC50
[11] = HEK-AC1 cells, read-out: HEK-AC1 IC50

T4 sequence (Q08828 whole entry): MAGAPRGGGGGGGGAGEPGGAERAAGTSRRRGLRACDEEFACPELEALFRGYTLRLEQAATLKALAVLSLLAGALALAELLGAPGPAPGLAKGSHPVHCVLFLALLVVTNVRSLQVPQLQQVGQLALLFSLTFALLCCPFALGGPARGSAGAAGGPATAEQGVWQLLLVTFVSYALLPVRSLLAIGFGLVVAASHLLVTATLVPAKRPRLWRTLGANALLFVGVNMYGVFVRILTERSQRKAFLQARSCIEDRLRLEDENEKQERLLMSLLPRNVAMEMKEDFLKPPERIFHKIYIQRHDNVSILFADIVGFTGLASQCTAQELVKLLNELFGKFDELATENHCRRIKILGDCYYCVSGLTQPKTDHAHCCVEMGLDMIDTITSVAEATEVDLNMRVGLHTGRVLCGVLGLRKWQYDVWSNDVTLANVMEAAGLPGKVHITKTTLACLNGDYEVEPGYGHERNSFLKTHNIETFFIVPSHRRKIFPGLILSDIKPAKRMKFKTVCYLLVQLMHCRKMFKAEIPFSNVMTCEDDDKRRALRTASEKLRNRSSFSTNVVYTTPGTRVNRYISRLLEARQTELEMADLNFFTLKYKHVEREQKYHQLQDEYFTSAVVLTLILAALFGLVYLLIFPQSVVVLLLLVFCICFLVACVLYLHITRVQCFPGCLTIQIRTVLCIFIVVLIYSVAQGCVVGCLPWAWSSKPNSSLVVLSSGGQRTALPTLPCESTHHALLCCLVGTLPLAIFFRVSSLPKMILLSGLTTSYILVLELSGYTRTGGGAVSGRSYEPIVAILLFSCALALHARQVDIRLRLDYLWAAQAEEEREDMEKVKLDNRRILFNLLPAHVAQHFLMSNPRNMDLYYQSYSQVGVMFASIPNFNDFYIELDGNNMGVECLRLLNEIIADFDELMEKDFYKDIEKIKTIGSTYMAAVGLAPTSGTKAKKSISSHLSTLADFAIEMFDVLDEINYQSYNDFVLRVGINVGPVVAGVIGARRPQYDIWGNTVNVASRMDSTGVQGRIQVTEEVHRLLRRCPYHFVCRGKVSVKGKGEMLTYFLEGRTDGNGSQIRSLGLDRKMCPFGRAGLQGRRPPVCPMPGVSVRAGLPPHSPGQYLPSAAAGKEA
T2 sequence (O95622 whole entry): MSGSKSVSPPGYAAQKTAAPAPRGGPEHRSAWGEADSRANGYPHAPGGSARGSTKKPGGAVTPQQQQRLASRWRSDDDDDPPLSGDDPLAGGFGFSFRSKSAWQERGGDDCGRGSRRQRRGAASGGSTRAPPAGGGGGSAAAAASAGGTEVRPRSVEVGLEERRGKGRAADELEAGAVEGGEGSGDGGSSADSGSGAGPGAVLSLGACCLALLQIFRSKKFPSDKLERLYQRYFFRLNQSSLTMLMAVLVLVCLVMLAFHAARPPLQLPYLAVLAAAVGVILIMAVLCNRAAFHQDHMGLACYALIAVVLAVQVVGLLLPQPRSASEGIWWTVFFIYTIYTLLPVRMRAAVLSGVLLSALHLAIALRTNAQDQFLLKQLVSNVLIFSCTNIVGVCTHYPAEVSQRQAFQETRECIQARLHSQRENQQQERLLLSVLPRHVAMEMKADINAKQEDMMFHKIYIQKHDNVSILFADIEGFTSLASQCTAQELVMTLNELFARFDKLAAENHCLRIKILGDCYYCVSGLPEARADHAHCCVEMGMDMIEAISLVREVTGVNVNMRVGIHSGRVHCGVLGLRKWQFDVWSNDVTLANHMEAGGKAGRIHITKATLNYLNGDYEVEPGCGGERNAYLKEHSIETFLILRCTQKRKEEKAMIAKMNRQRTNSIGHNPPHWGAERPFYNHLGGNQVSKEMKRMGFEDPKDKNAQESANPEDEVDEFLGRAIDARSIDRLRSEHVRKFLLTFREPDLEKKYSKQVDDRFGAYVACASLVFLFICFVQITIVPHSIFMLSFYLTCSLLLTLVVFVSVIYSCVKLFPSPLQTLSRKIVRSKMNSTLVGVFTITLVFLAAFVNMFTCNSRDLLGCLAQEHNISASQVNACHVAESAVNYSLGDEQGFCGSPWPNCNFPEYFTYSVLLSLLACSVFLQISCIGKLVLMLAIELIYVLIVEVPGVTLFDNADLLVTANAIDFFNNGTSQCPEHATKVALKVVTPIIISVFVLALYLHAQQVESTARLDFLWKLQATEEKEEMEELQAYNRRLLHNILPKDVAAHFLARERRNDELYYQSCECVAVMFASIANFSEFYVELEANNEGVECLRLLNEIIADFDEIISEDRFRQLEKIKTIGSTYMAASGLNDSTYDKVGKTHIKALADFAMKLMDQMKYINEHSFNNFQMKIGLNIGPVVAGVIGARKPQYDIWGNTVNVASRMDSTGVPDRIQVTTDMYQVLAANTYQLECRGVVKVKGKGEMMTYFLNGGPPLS
T3 sequence (P40145 whole entry): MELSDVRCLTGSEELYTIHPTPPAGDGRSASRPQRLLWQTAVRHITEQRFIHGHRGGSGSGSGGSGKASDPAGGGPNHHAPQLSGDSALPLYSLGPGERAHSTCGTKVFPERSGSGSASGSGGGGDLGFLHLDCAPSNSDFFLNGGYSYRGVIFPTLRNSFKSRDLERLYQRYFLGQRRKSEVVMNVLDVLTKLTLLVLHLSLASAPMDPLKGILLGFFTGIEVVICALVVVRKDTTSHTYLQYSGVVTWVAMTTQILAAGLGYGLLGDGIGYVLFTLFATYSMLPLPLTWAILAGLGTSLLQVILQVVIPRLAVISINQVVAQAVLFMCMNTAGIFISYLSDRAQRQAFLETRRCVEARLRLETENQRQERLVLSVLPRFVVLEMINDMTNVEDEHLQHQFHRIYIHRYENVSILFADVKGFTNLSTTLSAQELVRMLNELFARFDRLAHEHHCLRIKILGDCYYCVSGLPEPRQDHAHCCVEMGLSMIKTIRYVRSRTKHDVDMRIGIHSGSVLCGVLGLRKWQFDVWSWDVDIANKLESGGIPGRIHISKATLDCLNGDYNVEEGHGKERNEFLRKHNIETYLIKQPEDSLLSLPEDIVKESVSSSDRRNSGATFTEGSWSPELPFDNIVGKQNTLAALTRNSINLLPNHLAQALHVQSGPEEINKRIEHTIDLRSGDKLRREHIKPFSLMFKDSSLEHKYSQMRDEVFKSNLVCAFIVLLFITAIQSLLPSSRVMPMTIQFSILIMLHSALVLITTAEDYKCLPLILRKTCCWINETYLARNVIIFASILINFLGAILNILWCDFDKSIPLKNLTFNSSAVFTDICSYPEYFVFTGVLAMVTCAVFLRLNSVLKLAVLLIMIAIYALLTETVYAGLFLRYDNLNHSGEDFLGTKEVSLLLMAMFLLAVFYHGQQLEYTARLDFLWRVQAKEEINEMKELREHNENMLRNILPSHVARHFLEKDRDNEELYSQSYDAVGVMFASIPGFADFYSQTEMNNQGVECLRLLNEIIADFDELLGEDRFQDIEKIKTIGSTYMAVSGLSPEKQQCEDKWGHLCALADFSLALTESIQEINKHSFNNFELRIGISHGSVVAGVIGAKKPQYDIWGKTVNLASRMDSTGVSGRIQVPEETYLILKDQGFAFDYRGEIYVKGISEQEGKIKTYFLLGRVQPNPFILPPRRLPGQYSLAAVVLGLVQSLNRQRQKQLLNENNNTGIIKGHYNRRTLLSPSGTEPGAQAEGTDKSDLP
T1 sequence (Q08462 whole entry): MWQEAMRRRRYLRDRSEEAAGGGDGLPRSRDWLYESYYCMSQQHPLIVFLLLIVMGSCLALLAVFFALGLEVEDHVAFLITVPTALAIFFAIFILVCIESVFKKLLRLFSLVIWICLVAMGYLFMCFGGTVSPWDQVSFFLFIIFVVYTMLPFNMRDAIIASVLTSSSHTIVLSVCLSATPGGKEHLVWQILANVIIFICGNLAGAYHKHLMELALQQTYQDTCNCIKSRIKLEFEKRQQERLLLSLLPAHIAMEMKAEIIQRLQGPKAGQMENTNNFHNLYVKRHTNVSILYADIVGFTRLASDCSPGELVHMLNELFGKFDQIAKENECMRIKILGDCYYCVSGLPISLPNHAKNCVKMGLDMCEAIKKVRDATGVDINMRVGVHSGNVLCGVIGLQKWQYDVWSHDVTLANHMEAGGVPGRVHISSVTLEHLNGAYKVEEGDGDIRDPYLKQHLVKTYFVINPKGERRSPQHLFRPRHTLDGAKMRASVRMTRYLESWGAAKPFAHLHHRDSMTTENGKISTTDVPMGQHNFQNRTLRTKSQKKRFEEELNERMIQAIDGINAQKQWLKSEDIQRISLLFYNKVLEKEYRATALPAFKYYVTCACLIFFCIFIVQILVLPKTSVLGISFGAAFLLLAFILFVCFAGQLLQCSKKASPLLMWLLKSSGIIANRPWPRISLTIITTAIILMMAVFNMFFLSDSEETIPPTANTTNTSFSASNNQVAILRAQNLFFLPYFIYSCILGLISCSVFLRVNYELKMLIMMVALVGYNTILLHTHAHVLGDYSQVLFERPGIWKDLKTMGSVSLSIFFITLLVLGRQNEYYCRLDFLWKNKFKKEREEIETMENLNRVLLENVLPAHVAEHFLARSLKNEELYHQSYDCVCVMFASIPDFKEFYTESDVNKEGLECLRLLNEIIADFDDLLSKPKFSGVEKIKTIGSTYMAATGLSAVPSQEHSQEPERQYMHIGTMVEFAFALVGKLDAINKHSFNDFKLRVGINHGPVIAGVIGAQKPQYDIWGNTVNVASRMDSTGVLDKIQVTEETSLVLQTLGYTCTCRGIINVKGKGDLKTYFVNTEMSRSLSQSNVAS

Row | SMILES | hAC2 % Inhib. (hAC2 [1]) | hAC5 % Inhib. (hAC5 [2]) | hAC8 % Inhib. (hAC8) | Selectivity AC1 vs AC8 (hAC1) | hAC1 % Inhib. (hAC1; [8]) | IC50 (hAC1; [9]) | Viability % Vehicle (AC1-HEK cells [3]) | inhibition at 30 µM (hAC8; HEK-AC8 cells) | IC50 (hAC8; [10]) | inhibition at 30 µM (hAC1; HEK-AC1 cells) | IC50 (hAC1; [11]) | other results
1 | O=C(Nc1nnc(-c2ccc3c(c2)OCCO3)o1)c1ccc(Br)cc1 [F0608-0011] | -7% | −10% | 79 ± 1% | 9-fold | 101 ± 1% | 2 ± 0.2 µM | 125 ± 3 % Vehicle |  |  |  |  | IC50 (hAC8; [7]): 18 ± 2 µM
2 | CCc1c(C)nc(-n2nc(C)cc2NC(=O)c2ccco2)[nH]c1=O [F2215-0772] | 32% | 13% | 34 ± 7% | >30-fold | 100 ± 1% | 0.9 ± 0.2 µM | 93 ± 1 % Vehicle |  |  |  |  | 
3 | CSc1ccccc1C(=O)Nc1cc(C)nn1-c1nc2c(c(=O)[nH]1)CCC2 [F2215-0954] | −185% | −21% | 35 ± 8% | >5-fold | 99 ± 1% | 5.9 ± 0.4 µM | 106 ± 14 % Vehicle |  |  |  |  | 
4 | O=c1cc(C(Cl)(Cl)Cl)oc2ccc(Cl)cc12 [ST034307, 6-chloro-2-(trichloromethyl)-4H-chromen-4-one] |  |  |  |  |  |  |  |  |  |  |  | Viability % Vehicle (AC1-HEK cells [4]): 85 ± 6 % Vehicle; hAC2 % Inhib. (hAC2 [5]): −142%; hAC5 % Inhib. (hAC5 [6]): −44%
5 | CCc1cc(=O)[nH]c(-n2nc(C)cc2NC(=O)c2ccccc2F)n1 [F2215-0213] | −70% | 9% | 20 ± 1% |  | 99 ± 1% | 0.5 ± 0.1 µM | 101 ± 17 % Vehicle |  |  |  |  | 
6 | O=C(Nc1nnc(-c2ccc3c(c2)CCCC3)o1)c1ccccc1 [F0608-0538] | -95% | −34% | 76 ± 8% | 10-fold | 101 ± 1% | 2.1 ± 0.4 µM | 118 ± 6 % Vehicle |  |  |  |  | IC50 (hAC8; [7]): 21 ± 4 µM
7 | Nc1ncnc2c1ncn2CCNCCCCCO [NB001] |  |  |  |  |  |  |  |  |  |  |  | effect on chronic pain responses (inflammatory and neuropathic) (chronic pain responses): markedly attenuated chronic pain responses
8 | Cc1ccc(C(=O)Nc2nnc(-c3ccc(F)cc3)o2)cc1C(F)(F)F [AC10067, N-(5-(4-fluorophenyl)-1,3,4-oxadiazol-2-yl)-4-methyl-3-(trifluoromethyl)benzamide] |  |  |  |  |  |  |  | 75 ± 12% | 9 ± 5 µM | 93 ± 5% | 4.6 ± 2 µM | 
9 | COc1ccc(C(=O)Nc2nnc(-c3ccc4c(c3)CCCC4)o2)cc1 [AC10041, 4-methoxy-N-(5-(5,6,7,8-tetrahydronaphthalen-2-yl)-1,3,4-oxadiazol-2-yl)benzamide] |  |  |  |  |  |  |  | 34 ± 11% | 46 ± 13 µM | 94 ± 2% | 6.4 ± 1 µM | 
10 | O=C(Nc1nnc(C2CCCCC2)o1)c1ccccc1 [AC10003, N-(5-cyclohexyl-1,3,4-oxadiazol-2-yl)benzamide] |  |  |  |  |  |  |  | 3 ± 6% |  | 65 ± 4% | 24.5 ± 2 µM | 
11 | CC(C)Oc1ccc(C(=O)Nc2nnc(-c3ccc4c(c3)CCCC4)o2)cc1 [AC10010, 4-isopropoxy-N-(5-(5,6,7,8-tetrahydronaphthalen-2-yl)-1,3,4-oxadiazol-2-yl)benzamide] |  |  |  |  |  |  |  | 63 ± 7% | 12.6 ± 6 µM | 77 ± 13% | 9.9 ± 7 µM | 
12 | CSc1cccc(C(=O)Nc2nnc(C3CCCCC3)o2)c1 [F2289-0107] | −210% | -28% | 31 ± 2% | >4-fold | 99 ± 1% | 7.5 ± 2 µM | 117 ± 1 % Vehicle |  |  |  |  | 
13 | O=C(Nc1nnc(-c2ccc3c(c2)CCCC3)o1)c1cccc(F)c1 [AC10059, 3-fluoro-N-(5-(5,6,7,8-tetrahydronaphthalen-2-yl)-1,3,4-oxadiazol-2-yl)benzamide] |  |  |  |  |  |  |  | 90 ± 1% | 4.2 ± 0.2 µM | 99 ± 0.4% | 1 ± 0.3 µM | 
14 | CC1CC(C)CN(S(=O)(=O)c2ccc(C(=O)Nc3nnc(-c4cccs4)o3)cc2)C1 (centres unmarked) [F0559-0346] | −6% | 4% | 74 ± 13% | 2-fold | 99 ± 1% | 9.1 ± 2 µM | 118 ± 2 % Vehicle |  |  |  |  | IC50 (hAC8; [7]): 17 ± 6 µM
15 | Cc1cc(C(=O)Nc2nnc(-c3ccc4c(c3)CCCC4)o2)cc(C(F)(F)F)c1 [AC10072, 3-methyl-N-(5-(5,6,7,8-tetrahydronaphthalen-2-yl)-1,3,4-oxadiazol-2-yl)-5-(trifluoromethyl)benzamide] |  |  |  |  |  |  |  | 78 ± 13% | 2.4 ± 0.02 µM | 85 ± 4% | 9.1 ± 3 µM | 
16 | O=C(Nc1nnc(-c2ccc3c(c2)CCCC3)o1)c1ccccc1 [AC10002, N-(5-(5,6,7,8-tetrahydronaphthalen-2-yl)-1,3,4-oxadiazol-2-yl)benzamide] |  |  |  |  |  |  |  | 80 ± 6% | 19.1 ± 5 µM | 100 ± 1% | 3.4 ± 1 µM | 
17 | COc1ccc(C(=O)Nc2nnc(-c3ccc(F)cc3)o2)cc1 [AC10039, N-(5-(4-fluorophenyl)-1,3,4-oxadiazol-2-yl)-4-methoxybenzamide] |  |  |  |  |  |  |  | 20 ± 6% |  | 73 ± 4% |  | 
18 | COc1cccc(C(=O)Nc2nnc(-c3ccc4c(c3)CCCC4)o2)c1 [AC10016, 3-methoxy-N-(5-(5,6,7,8-tetrahydronaphthalen-2-yl)-1,3,4-oxadiazol-2-yl)benzamide] |  |  |  |  |  |  |  | 55 ± 3% | 25 ± 4 µM | 99% | 3.1 ± 0.4 µM | 
19 | Cc1ccc(C(=O)Nc2nnc(-c3ccc(F)cc3)o2)cc1 [AC10031, N-(5-(4-fluorophenyl)-1,3,4-oxadiazol-2-yl)-4-methylbenzamide] |  |  |  |  |  |  |  | 31 ± 6% | 61 ± 33 µM | 80 ± 10% | 7.3 ± 2 µM | 
20 | O=C(Nc1nnc(-c2ccc(F)cc2)o1)c1ccccc1F [AC10060, 2-fluoro-N-(5-(4-fluorophenyl)-1,3,4-oxadiazol-2-yl)benzamide] |  |  |  |  |  |  |  | 13 ± 7% |  | 12 ± 4% |  | inhibition at 10 µM (hAC2 [1]; HEK-AC2 cells, 10 μM, (−) = negative inhibition (potentiated response)): 3 ± 6%
